Experimental data published in the supplement of paper PMC11061612.

How the values were obtained:
Assay in all cases: Bliss excess, mean over the matrix (fraction); higher = more synergy
[1] = tested on: NCI-H524 (Small Cell Lung Carcinoma)
Procedure, shortened: (§1)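 Cell lines in DMEM/F12 or RPMI with 10% FBS were plated in 1536-well plates, held 24 hours at 37°C, 5% CO2, then given two-drug dose matrices for 72 hours (DMSO typically 0.2%). Viability was read by CellTiter-Glo 2.0 luminescence and scaled as inhibition from 0 (vehicle wells) to 1 (blank wells). Combination Emax is the second-highest inhibition in the matrix; Bliss excess is observed combination effect minus expected EA + EB − EA·EB, EA and EB being single-agent effects.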

[2] = tested on: TGBC1TKB (Biliary Tract Carcinoma)
Procedure, shortened: as §1

[3] = tested on: SAS (Oral Cavity Carcinoma)
Procedure, shortened: as §1

KS-1 (Glioblastoma) = tested on: KS-1 (Glioblastoma)
Procedure, shortened: as §1

[4] = tested on: BFTC-909 (Kidney Carcinoma)
Procedure, shortened: as §1

[5] = tested on: HuH-7 (Hepatocellular Carcinoma)
Procedure, shortened: as §1

LOXIMVI (Melanoma) = tested on: LOXIMVI (Melanoma)
Procedure, shortened: as §1

[6] = tested on: HeLa (Cervical Carcinoma)
Procedure, shortened: as §1

[7] = tested on: OV-56 (Ovarian Carcinoma)
Procedure, shortened: as §1

[8] = tested on: CAL-33 (Oral Cavity Carcinoma)
Procedure, shortened: as §1

[9] = tested on: SW1710 (Bladder Carcinoma)
Procedure, shortened: as §1

[10] = tested on: Hs-746T (Gastric Carcinoma)
Procedure, shortened: as §1

CAL-72 (Osteosarcoma) = tested on: CAL-72 (Osteosarcoma)
Procedure, shortened: as §1

BE2-M17 (Neuroblastoma) = tested on: BE2-M17 (Neuroblastoma)
Procedure, shortened: as §1

NCI-H2722 (Mesothelioma) = tested on: NCI-H2722 (Mesothelioma)
Procedure, shortened: as §1

[11] = tested on: ESS-1 (Other Solid Carcinomas)
Procedure, shortened: as §1

BPH-1 (Non-Cancerous) = tested on: BPH-1 (Non-Cancerous)
Procedure, shortened: as §1

[12] = tested on: HuCCT1 (Biliary Tract Carcinoma)
Procedure, shortened: as §1

MPP-89 (Mesothelioma) = tested on: MPP-89 (Mesothelioma)
Procedure, shortened: as §1

[13] = tested on: LCLC-97TM1 (Non-Small Cell Lung Carcinoma)
Procedure, shortened: as §1

| SMILES | Bliss excess [1] | Bliss excess [2] | Bliss excess [3] | Bliss excess (KS-1 (Glioblastoma)) | Bliss excess [4] | Bliss excess [5] | Bliss excess (LOXIMVI (Melanoma)) | Bliss excess [6] | Bliss excess [7] | Bliss excess [8] | Bliss excess [9] | Bliss excess [10] | Bliss excess (CAL-72 (Osteosarcoma)) | Bliss excess (BE2-M17 (Neuroblastoma)) | Bliss excess (NCI-H2722 (Mesothelioma)) | Bliss excess [11] | Bliss excess (BPH-1 (Non-Cancerous)) | Bliss excess [12] | Bliss excess (MPP-89 (Mesothelioma)) | Bliss excess [13] |
| --- | --- | --- | --- | --- | --- | --- | --- | --- | --- | --- | --- | --- | --- | --- | --- | --- | --- | --- | --- | --- |
| Cc1cc2ncnn2cc1Nc1ncc2c(n1)n(C1CCOCC1)c(=O)n2C [AZD7648] + O=C(c1cc(Cc2n[nH]c(=O)c3ccccc23)ccc1F)N1CCN(C(=O)C2CC2)CC1 [Olaparib] (first compound max 10 µM, 7x7, partner max 10 µM) | -0.0698 | -0.0649 | -0.0245 | -0.0355 | -0.037 | -0.0389 | -0.0577 | -0.0016 | -0.0157 | -0.0237 | -0.0377 | -0.0732 | -0.0093 | 0.0754 | -0.0445 | -0.0721 | 0.0337 | -0.028 | -0.0163 | -0.0218 |
| Cc1nc(Nc2ncc(C(=O)Nc3c(C)cccc3Cl)s2)cc(N2CCN(CCO)CC2)n1 [Dasatinib] + CC(=O)Nc1cccc(-n2c(=O)n(C3CC3)c(=O)c3c(Nc4ccc(I)cc4F)n(C)c(=O)c(C)c32)c1 [Trametinib] (first compound max 2 µM, 7x7, partner max 1 µM) | -0.0362 | 0.123 | 0.0083 | -0.0429 | -0.0139 | 0.0586 | 0.0175 | -0.0672 | 0.0114 | -0.0189 | -0.0546 | -0.0943 | -0.0409 | -0.0087 | -0.0321 | -0.0417 | -0.0801 | -0.0272 | -0.0661 | 0.0455 |
| COc1cc2ncnc(Nc3ccc(F)c(Cl)c3)c2cc1OCCCN1CCOCC1 [Gefitinib] + CC(C)n1c(=O)n(C)c2cnc3cc(F)c(-c4ccc(OCCCN5CCCCC5)nc4)cc3c21 [AZD1390] (first compound max 10 µM, 7x7, partner max 0.3 µM) | -0.0431 | -0.0264 | -0.0454 | -0.0599 | -0.0614 | -0.042 | -0.0384 | -0.0578 | -0.0543 | -0.0366 | -0.041 | -0.0759 | -0.0555 | -0.049 | -0.0662 | -0.0518 | -0.0347 | -0.0347 | -0.05 | -0.0389 |
| COc1cc2c(cc1OCCCCCOc1cc3c(cc1OC)C(=O)N1C=C(C)C[C@H]1C=N3)N=C[C@@H]1CC(C)=CN1C2=O [SG3199] + O=C(c1cc(Cc2n[nH]c(=O)c3ccccc23)ccc1F)N1CCN(C(=O)C2CC2)CC1 [Olaparib] (first compound max 0.001 µM, 7x7, partner max 10 µM) | -0.0181 | -0.0438 | -0.03 | -0.0482 | -0.0308 | -0.0363 | -0.0599 | -0.0301 | -0.0297 | -0.0198 | -0.0334 | -0.0292 | -0.0565 | 0.0474 | -0.0459 | -0.0118 | 0.0391 | -0.0309 | -0.0391 | -0.0079 |
| C[C@@H](c1ccc2nccn2c1)n1nnc2ncc(-c3cnn(C)c3)nc21 [Savolitinib] + CC1(C)CCC(CN2CCN(c3ccc(C(=O)NS(=O)(=O)c4ccc(NCC5CCOCC5)c([N+](=O)[O-])c4)c(Oc4cnc5[nH]ccc5c4)c3)CC2)=C(c2ccc(Cl)cc2)C1 [Venetoclax] (first compound max 1 µM, 7x7, partner max 1 µM) | -0.0066 | -0.0122 | -0.0388 | -0.0476 | -0.0401 | -0.0573 | -0.0355 | -0.0374 | -0.0419 | -0.0211 | -0.0561 | -0.0105 | -0.02 | -0.0656 | -0.0617 | -0.0241 | -0.0928 | -0.0525 | -0.0566 | -0.0427 |
| C[C@@H](c1ccc2nccn2c1)n1nnc2ncc(-c3cnn(C)c3)nc21 [Savolitinib] + Cc1c2c(nn1C)CSCc1cc(n(C)n1)CSc1cc(c3ccccc3c1)OCCCc1c(C(=O)O)n(C)c3c-2c(Cl)ccc13 [AZD5991] (first compound max 1 µM, 7x7, partner max 1 µM) | -0.0115 | -0.0238 | -0.0341 | -0.0509 | -0.0074 | -0.0276 | -0.0096 | -0.0696 | -0.0547 | -0.0423 | -0.0351 | -0.0489 | -0.0077 | -0.0285 | -0.0088 | -0.0432 | -0.0457 | -0.0556 | -0.0423 | -0.0311 |
